In patent US9357777B2, “Method for effective management of helicoverpa armigera” (priority 2012, dated 2016):
Bridges are numbered along the chain shown (N, C = ends). Where no end group is shown, it is not given here.

Biological target: T1, bovine trypsin (Bos taurus, UniProt P00760)
T1 construct: purchased Sigma-Aldrich
T1 sequence (P00760 24-246): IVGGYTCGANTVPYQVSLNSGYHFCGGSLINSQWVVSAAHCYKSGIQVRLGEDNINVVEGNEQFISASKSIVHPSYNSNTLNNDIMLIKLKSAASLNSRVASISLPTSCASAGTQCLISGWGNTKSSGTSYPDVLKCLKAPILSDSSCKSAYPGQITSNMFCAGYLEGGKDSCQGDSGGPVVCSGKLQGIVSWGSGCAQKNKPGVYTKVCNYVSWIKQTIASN
Test: Inhibition kinetics with bovine trypsin (BApNA substrate)
Format: biochemical
Description: Michaelis-Menten constant (Km) for trypsin was calculated by using various concentrations of BApNA substrate (1 to 5 mM), and then plotting double reciprocal curve with 1/(v) and 1/[S]. The kinetic properties of IRDs were analysed over a range of concentration of inhibitors (1 μM to 1 mM). IC50 values for each inhibitor were calculated from the sigmoid curve indicating the best fit for the percentage inhibition data obtained. The values of Ki values for each inhibitor were calculated directly from IC50 values using Cheng-Prusoff's classical equation (Copeland et al., 1995).

QPICTNSSAGLKGCNYYNADGTFICEGESDPNHPKACPKNCDPNIAYSLC (disulfide 4-41, 14-50; cysteines drawn unpaired) [IRD-9]
Ki (calculated from IC50 by Cheng-Prusoff's equation, read-out: Inhibition constant (Ki)): ~2200 nM | IC50 (substrate BApNA 1 mM, FIG. 2C): ~2200 nM
